The supplement of paper PMC8671470
± gives the standard deviation of the averaged measurements.

system: KG-1; assay: cell viability (% survival relative to DMSO control, bortezomib = 0%); higher = less cytotoxic; details: 10000 nM; 72 h
Method in brief: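 After 72 h at 37 °C with 5% CO2, cell viability in 384-well plates was measured by CellTiter-Glo luminescence. The plates held compounds pre-printed at 1, 10, 100, 1000 or 10000 nM in duplicate, and cells from 10 AML and 5 CML lines seeded at densities titrated to linear growth. Percent survival is the duplicate mean, normalised to vehicle as 100% and a 10 µM positive control as 0%.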

In order of rising cell viability:
1. NS(=O)(=O)c1ccc(S(=O)(=O)Nc2cccc3c(Cl)c[nH]c23)cc1 [Indisulam]  15.5%
2. COc1ccc2c(c1)c(CC(=O)O)c(C)n2C(=O)c1ccc(Cl)cc1 [Indomethacine]  97.6%
3. Cn1cc(C[C@@H](N)C(=O)O)c2ccccc21 [Indoximod]  97.6%

system: HL-60; assay: cell viability (% survival relative to DMSO control); higher = less cytotoxic; details: 0.001 µM; 72 h; co-treatment: AZD3965 100 nM
Method in brief: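 Area under the curve, where listed, was derived from four-parameter log-logistic fits with drc and PharmacoGx. These fits used CellTiter-Glo viability from HL-60 cells in RPMI 1640 with 10% FBS, normalised to DMSO wells and wells holding 10 μM proteasome inhibitor. The full library was rescreened on 384-well plates in duplicate at five tenfold concentrations, 1–10,000 nM, with DMSO or 100 nM of one of three metabolic inhibitors, for 72 h at 37 °C, 5% CO2.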

In order of falling cell viability:
1. Clc1cc(Cl)c(OCC#CI)cc1Cl [Haloprogin]  103 ± 1.2%
2. CC1Cc2ccccc2N1NC(=O)c1ccc(Cl)c(S(N)(=O)=O)c1 (centres undefined) [Indapamide]  103 ± 4.1%
3. Nc1ccn([C@@H]2O[C@H](CO)[C@@H](O)C2(F)F)c(=O)n1 [Gemcitabine]  101 ± 4.7%
4. N[C@@H](CCC(=O)N[C@@H](CS)C(=O)NCC(=O)O)C(=O)O [Glutathione]  99.7 ± 0.66%
5. OC[C@H]1N[C@@H](c2c[nH]c3c(O)ncnc23)[C@H](O)[C@@H]1O [Forodesine]  97.5 ± 7.8%
6. NS(=O)(=O)c1ccc(S(=O)(=O)Nc2cccc3c(Cl)c[nH]c23)cc1 [Indisulam]  97.4 ± 3.1%
7. O=c1[nH]c(=O)n([C@H]2C[C@H](O)[C@@H](CO)O2)cc1I [Idoxuridine]  94.7 ± 5.6%
8. COc1ccc2c(c1)c(CC(=O)O)c(C)n2C(=O)c1ccc(Cl)cc1 [Indomethacine]  94.5 ± 15%
9. Cn1cc(C[C@@H](N)C(=O)O)c2ccccc21 [Indoximod]  89.7 ± 8%
10. O=c1oc2c(cc1O)oc(=O)c1cc(O)c(O)c(O)c12 [Galloflavin]  81.9 ± 2.5%

same assay, conditions: 0.001 µM; 72 h; co-treatment: DMSO vehicle

In order of falling cell viability:
1. O=c1oc2c(cc1O)oc(=O)c1cc(O)c(O)c(O)c12 [Galloflavin]  102 ± 1.5%
2. Clc1cc(Cl)c(OCC#CI)cc1Cl [Haloprogin]  102 ± 2.9%
3. OC[C@H]1N[C@@H](c2c[nH]c3c(O)ncnc23)[C@H](O)[C@@H]1O [Forodesine]  101 ± 2.1%
4. N[C@@H](CCC(=O)N[C@@H](CS)C(=O)NCC(=O)O)C(=O)O [Glutathione]  101 ± 1.5%
5. Cn1cc(C[C@@H](N)C(=O)O)c2ccccc21 [Indoximod]  100 ± 5.2%
6. O=c1[nH]c(=O)n([C@H]2C[C@H](O)[C@@H](CO)O2)cc1I [Idoxuridine]  99.9 ± 2.4%
7. Nc1ccn([C@@H]2O[C@H](CO)[C@@H](O)C2(F)F)c(=O)n1 [Gemcitabine]  99.76 ± 0.9%
8. CC1Cc2ccccc2N1NC(=O)c1ccc(Cl)c(S(N)(=O)=O)c1 (centres undefined) [Indapamide]  98.1 ± 3.9%
9. NS(=O)(=O)c1ccc(S(=O)(=O)Nc2cccc3c(Cl)c[nH]c23)cc1 [Indisulam]  96.4 ± 10%
10. COc1ccc2c(c1)c(CC(=O)O)c(C)n2C(=O)c1ccc(Cl)cc1 [Indomethacine]  93.22 ± 0.93%

same assay, conditions: 0.001 µM; 72 h; co-treatment: GSK2194069 100 nM

In order of rising cell viability:
1. COc1ccc2c(c1)c(CC(=O)O)c(C)n2C(=O)c1ccc(Cl)cc1 [Indomethacine]  88 ± 18%
2. O=c1oc2c(cc1O)oc(=O)c1cc(O)c(O)c(O)c12 [Galloflavin]  92.6 ± 11%
3. O=c1[nH]c(=O)n([C@H]2C[C@H](O)[C@@H](CO)O2)cc1I [Idoxuridine]  95.3 ± 9.7%
4. Clc1cc(Cl)c(OCC#CI)cc1Cl [Haloprogin]  95.5 ± 3.3%
5. N[C@@H](CCC(=O)N[C@@H](CS)C(=O)NCC(=O)O)C(=O)O [Glutathione]  96.2 ± 3.6%
6. Cn1cc(C[C@@H](N)C(=O)O)c2ccccc21 [Indoximod]  96.5 ± 4.6%
7. OC[C@H]1N[C@@H](c2c[nH]c3c(O)ncnc23)[C@H](O)[C@@H]1O [Forodesine]  100 ± 3.5%
8. NS(=O)(=O)c1ccc(S(=O)(=O)Nc2cccc3c(Cl)c[nH]c23)cc1 [Indisulam]  101 ± 8.2%
9. CC1Cc2ccccc2N1NC(=O)c1ccc(Cl)c(S(N)(=O)=O)c1 (centres undefined) [Indapamide]  103.4 ± 0.98%
10. Nc1ccn([C@@H]2O[C@H](CO)[C@@H](O)C2(F)F)c(=O)n1 [Gemcitabine]  104 ± 3.8%

same assay, conditions: 0.001 µM; 72 h; co-treatment: pictilisib 100 nM

In order of falling cell viability:
1. NS(=O)(=O)c1ccc(S(=O)(=O)Nc2cccc3c(Cl)c[nH]c23)cc1 [Indisulam]  110 ± 7.8%
2. Cn1cc(C[C@@H](N)C(=O)O)c2ccccc21 [Indoximod]  110 ± 8.8%
3. O=c1oc2c(cc1O)oc(=O)c1cc(O)c(O)c(O)c12 [Galloflavin]  109 ± 8.3%
4. CC1Cc2ccccc2N1NC(=O)c1ccc(Cl)c(S(N)(=O)=O)c1 (centres undefined) [Indapamide]  100 ± 10%
5. Nc1ccn([C@@H]2O[C@H](CO)[C@@H](O)C2(F)F)c(=O)n1 [Gemcitabine]  97.8 ± 12%
6. N[C@@H](CCC(=O)N[C@@H](CS)C(=O)NCC(=O)O)C(=O)O [Glutathione]  96.6 ± 2.5%
7. Clc1cc(Cl)c(OCC#CI)cc1Cl [Haloprogin]  92.6 ± 1.3%
8. COc1ccc2c(c1)c(CC(=O)O)c(C)n2C(=O)c1ccc(Cl)cc1 [Indomethacine]  90.7 ± 5.6%
9. O=c1[nH]c(=O)n([C@H]2C[C@H](O)[C@@H](CO)O2)cc1I [Idoxuridine]  84.1 ± 16%
10. OC[C@H]1N[C@@H](c2c[nH]c3c(O)ncnc23)[C@H](O)[C@@H]1O [Forodesine]  79.7 ± 8.4%

same assay, conditions: 0.01 µM; 72 h; co-treatment: AZD3965 100 nM

In order of rising cell viability:
1. COc1ccc2c(c1)c(CC(=O)O)c(C)n2C(=O)c1ccc(Cl)cc1 [Indomethacine]  76.1 ± 30%
2. Nc1ccn([C@@H]2O[C@H](CO)[C@@H](O)C2(F)F)c(=O)n1 [Gemcitabine]  82.7 ± 21%
3. Cn1cc(C[C@@H](N)C(=O)O)c2ccccc21 [Indoximod]  96.1 ± 6.9%
4. O=c1oc2c(cc1O)oc(=O)c1cc(O)c(O)c(O)c12 [Galloflavin]  97.2 ± 2.5%
5. NS(=O)(=O)c1ccc(S(=O)(=O)Nc2cccc3c(Cl)c[nH]c23)cc1 [Indisulam]  97.92 ± 0.55%
6. N[C@@H](CCC(=O)N[C@@H](CS)C(=O)NCC(=O)O)C(=O)O [Glutathione]  98.74 ± 0.26%
7. Clc1cc(Cl)c(OCC#CI)cc1Cl [Haloprogin]  102 ± 1.6%
8. O=c1[nH]c(=O)n([C@H]2C[C@H](O)[C@@H](CO)O2)cc1I [Idoxuridine]  102 ± 7.4%
9. CC1Cc2ccccc2N1NC(=O)c1ccc(Cl)c(S(N)(=O)=O)c1 (centres undefined) [Indapamide]  104 ± 2%
10. OC[C@H]1N[C@@H](c2c[nH]c3c(O)ncnc23)[C@H](O)[C@@H]1O [Forodesine]  105 ± 1.2%

same assay, conditions: 0.01 µM; 72 h; co-treatment: DMSO vehicle

In order of falling cell viability:
1. OC[C@H]1N[C@@H](c2c[nH]c3c(O)ncnc23)[C@H](O)[C@@H]1O [Forodesine]  105 ± 1.1%
2. Clc1cc(Cl)c(OCC#CI)cc1Cl [Haloprogin]  103 ± 4.5%
3. O=c1[nH]c(=O)n([C@H]2C[C@H](O)[C@@H](CO)O2)cc1I [Idoxuridine]  100 ± 3.8%
4. N[C@@H](CCC(=O)N[C@@H](CS)C(=O)NCC(=O)O)C(=O)O [Glutathione]  99.78 ± 0.85%
5. Nc1ccn([C@@H]2O[C@H](CO)[C@@H](O)C2(F)F)c(=O)n1 [Gemcitabine]  85.6 ± 14%
6. O=c1oc2c(cc1O)oc(=O)c1cc(O)c(O)c(O)c12 [Galloflavin]  84.8 ± 23%
